Consider 22 compounds from patent publication US8557816B2, “Aurora kinase modulators and method of use” (Amgen Inc., priority 2007, dated 2013).

One assay has as its target T1, AuroraA-TPX2 (Homo sapiens, UniProt O14965).
T1 construct: 20 μL of AuroraA-TPX2 KD GST for a final volume of about 41 μL; GST
T1 sequence (O14965 133-383 limits assumed): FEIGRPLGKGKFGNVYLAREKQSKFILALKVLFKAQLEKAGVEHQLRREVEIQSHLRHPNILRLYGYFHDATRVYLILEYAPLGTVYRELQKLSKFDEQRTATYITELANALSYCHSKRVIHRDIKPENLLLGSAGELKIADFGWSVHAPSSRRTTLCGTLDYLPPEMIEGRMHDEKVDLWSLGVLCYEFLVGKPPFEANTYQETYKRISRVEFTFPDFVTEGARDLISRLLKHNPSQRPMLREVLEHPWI
T1 sequence (Q9ULW0 1-43 partner limits assumed): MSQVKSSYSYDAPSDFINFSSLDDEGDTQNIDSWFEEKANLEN
The assay can be described thus: AuroraA-TPX2 Homogeneous Time Resolved Fluorescent (HTRF) kinase assay. The settings on record: average; read-out: AurA_IC50_IP (uM Avg). It is filed as biochemical. The protocol: AuroraA-TPX2-Homogeneous Time Resolved Fluorescent (HTRF) Kinase Assay:
The Aurora-A HTRF assay begins with Aurora-A in the presence of ATP phosphorylating the biotinylated peptide PLK. The reaction incubates for about 120 min. Detection reagents are added to quench the reaction. These agents stop the reaction by diluting out the enzyme and chelating the metals due to the presence of EDTA. After addition, the assay is incubated overnight to allow the detection reagents to equilibrate.
The AuroraA HTRF assay comprises 1 μL of compound in 100% DMSO, 20 μL of ATP and biotinylated PLK, and 20 μL of AuroraA-TPX2 KD GST for a final volume of about 41 μL. The final concentration of PLK is about 1 μM. […] Buffer conditions are as follows: 60 mM HEPES pH 7.5, 25 mM NaCl, 10 mM MgCl, 2 mM DTT, 0.05% BSA.
The assay is quenched and stopped with 160 μL of detection reagent. Detection reagents are as follows: Buffer made of 50 mM Tris, pH 7.5, 100 mM NaCl, 3 mM EDTA, 0.05% BSA, 0.1% Tween20. Added to this buffer prior to reading is Steptavidin allophycocyanin (SA-APC) at a final conc in the assay of 0.0005 mg/mL, and europilated anti-phosphoPLK Ab (Eu-anti-PLK) at a final conc of 0.02 nM.
The assay plate is read in either a Discovery or a RubyStar. The eu-anti-PLK is excited at 320 nm and emits at 615 nm to excite the SA-APC which in turn emits at 655 nm.
On the technique in general: TR-FRET usually uses a lanthanide donor and a delayed reading to cut background.

For another assay, the target named is T2, AuroraB (Homo sapiens, UniProt Q96GD4).
T2 construct: 20 μL of AuroraB FL H is for a final volume of 41 μL; His
The assay can be described thus: AuroraB Homogeneous Time Resolved Fluorescent (HTRF) kinase assay. Type of assay: biochemical. The settings on record: average; read-out: AurB_IC50_IP (uM Avg). The protocol:
AuroraB-Homogeneous Time Resolved Fluorescent (HTRF) Kinase Assay:
The AuroraB HTRF assay begins with AuroraB in the presence of ATP phosphorylating the biotinylated peptide Histone H3. The reaction incubates for about 90 min. the reaction is quenched by addition of detection reagents, which stop the reaction by diluting out the enzyme and chelating the metals due to the presence of EDTA. After addition, the assay is incubated for about 60 min to allow detection reagents to equilibrate.
The AuroraB HTRF assay comprises 1 μL of compound in 100% DMSO, 20 μL of ATP and biotinylated Histone H3, and 20 μL of AuroraB FL H is for a final volume of 41 μL. The final concentration of Histone H3 is 0.1 μM. […] Buffer conditions are as follows: 50 mM HEPES pH 7.5, 5 mM NaCl, 0.5 mM MgCl, 0.5 mM MnCl, 2 mM DTT, 0.05% BSA.
The assay is quenched and stopped with 160 μL of detection reagent. Detection reagents are as follows: Buffer made of 50 mM Tris, pH 7.5, 100 mM NaCl, 3 mM EDTA, 0.05% BSA, 0.1% Tween20. Added to this buffer prior to reading is Steptavidin allophycocyanin (SA-APC) at a final conc in the assay of 0.001 mg/mL, and europilated anti-phosphoHistoneH3 Ab (Eu-anti-HisH3) at a final conc of 0.064 nM.
The assay plate is read in either a Discovery or a RubyStar. The eu-anti-HisH3 is excited at 320 nm and emits at 615 nm to excite the SA-APC which in turn emits at 655 nm.

T2 sequence (Q96GD4 whole entry): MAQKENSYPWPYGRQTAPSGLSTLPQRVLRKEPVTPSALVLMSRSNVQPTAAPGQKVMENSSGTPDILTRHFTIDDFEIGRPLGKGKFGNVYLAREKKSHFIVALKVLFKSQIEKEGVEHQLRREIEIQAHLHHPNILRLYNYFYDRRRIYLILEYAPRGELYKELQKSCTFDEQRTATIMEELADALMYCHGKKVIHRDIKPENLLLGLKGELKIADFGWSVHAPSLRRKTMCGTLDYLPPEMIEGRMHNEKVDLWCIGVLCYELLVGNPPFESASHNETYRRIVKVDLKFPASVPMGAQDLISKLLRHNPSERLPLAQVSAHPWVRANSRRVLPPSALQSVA

Consider `COc1cc2nccc(Sc3ccc(Nc4nnc(-c5ccc(Cl)cc5)c5ccccc45)cc3)c2[nH]c1=O` [Example 406, 8-(4-(4-(4-Chlorophenyl)phthalazin-1-ylamino)phenylthio)-3-methoxy-1,5-naphthyridin-2(1H)-one], for which the IC50 on AuroraA-TPX2 amounted to 0.034 µM; on AuroraB it was 0.186 µM.
On to `COc1cnc2c(Oc3ccc(Nc4nnc(-c5cc(CO)cs5)c5ccccc45)cc3)ccnc2c1` [Example 407, (5-(4-(4-(7-Methoxy-1,5-naphthyridin-4-yloxy)phenylamino)phthalazin-1-yl)thiophen-3-yl)methanol], for which the IC50 on AuroraA-TPX2 was determined as 0.016 µM; on AuroraB, 0.004 µM.
The like results for `COc1cnc2c(Oc3ccc(Nc4nnc(-c5cc(CF)cs5)c5ccccc45)cc3)ccnc2c1` [Example 408, 4-(4-(Fluoromethyl)thiophen-2-yl)-N-(4-(7-methoxy-1,5-naphthyridin-4-yloxy)phenyl)phthalazin-1-amine] were, in that order, 0.024 µM and 0.009 µM.
On to `Oc1cnc2c(Oc3ccc(Nc4nnc(-c5ccc(Cl)cc5)c5ccccc45)cc3)ccnc2c1` [Example 409, 8-(4-(4-(4-Chlorophenyl)phthalazin-1-ylamino)phenoxy)-1,5-naphthyridin-3-ol], for which the IC50 on AuroraA-TPX2 stood at 0.02 µM; at AuroraB, 0.005 µM.
In the same order, the values of `COc1cnc2c([S+]([O-])c3ccc(Nc4nnc(-c5ccc(F)cc5)c5ccccc45)cc3)ccnc2c1` (centres unmarked) [Example 410, 4-(4-fluorophenyl)-N-(4-(7-methoxy-1,5-naphthyridin-4-ylsulfinyl)phenyl)phthalazin-1-amine] are 0.532 µM and 0.645 µM.
As to `CCc1cc(-c2ccccc2)nnc1Nc1ccc(Oc2ccnc3cc(C(N)=O)ccc23)cc1` [compound 49, 4-((4-((4-ethyl-6-phenyl-3-pyridazinyl)amino)phenyl)oxy)-7-quinolinecarboxamide], the IC50 worked out at 0.021 µM at AuroraA-TPX2 and 0.001 µM on AuroraB.
In the same order, the values of `COc1cnc2c(N(C)c3ccc(Nc4nnc(-c5ccccc5)c5ccccc45)cc3)ccnc2c1` [compound 51, N-methyl-N-(7-(methyloxy)-1,5-naphthyridin-4-yl)-N′-(4-phenyl-1-phthalazinyl)-1,4-benzenediamine] are 0.86 µM and 0.023 µM.
The like results for `COc1cc2nccc(Oc3ccc(Nc4nnc(-c5ccc(C)c(C)c5)c5ccccc45)cc3)c2cc1OC` [compound 74, N-(4-((6,7-bis(methyloxy)-4-quinolinyl)oxy)phenyl)-4-(3,4-dimethylphenyl)-1-phthalazinamine] were, in that order, 0.014 µM and 0.032 µM.
The like results for `COc1cc2nccc(Oc3ccc(Nc4nnc(N5CCCCC5)c5ccccc45)cc3)c2cc1OC` [compound 75, N-(4-((6,7-bis(methyloxy)-4-quinolinyl)oxy)phenyl)-4-(1-piperidinyl)-1-phthalazinamine] were, in that order, 0.023 µM and 0.042 µM.
For `COc1cc2nccc(Oc3ccc(Nc4nnc(-c5cccs5)c5ccccc45)cc3F)c2cc1OC` [compound 76, N-(4-((6,7-bis(methyloxy)-4-quinolinyl)oxy)-3-fluorophenyl)-4-(2-thienyl)-1-phthalazinamine], the IC50 on AuroraA-TPX2 was 0.034 µM; at AuroraB it was 0.106 µM.
The like results for `COc1cc2nccc(Oc3ccc(Nc4nnc(-n5nc(C)cc5C)c5ccccc45)cc3F)c2cc1OC` [compound 77, N-(4-((6,7-bis(methyloxy)-4-quinolinyl)oxy)-3-fluorophenyl)-4-(3,5-dimethyl-1H-pyrazol-1-yl)-1-phthalazinamine] were, in that order, 0.701 µM and 0.079 µM.
In the same order, the values of `NC(=O)c1cc2nccc(Oc3ccc(Nc4nnc(-c5ccccc5)c5ccccc45)cc3F)c2s1` [compound 78, 7-((2-fluoro-4-((4-phenyl-1-phthalazinyl)amino)phenyl)oxy)thieno-[3,2-b]pyridine-2-carboxamide] are 0.022 µM and 0.004 µM.
The like results for `COc1cnc2c(Oc3ccc(Nc4nnc(-c5ccccc5)c5ccccc45)cc3)ccnc2c1` [compound 79, N-(4-((7-(methyloxy)-1,5-naphthyridin-4-yl)oxy)phenyl)-4-phenyl-1-phthalazinamine] were, in that order, 0.028 µM and 0.008 µM.
For `COc1cnc2c(Oc3ccc(Nc4nnc(-c5cc(F)ccc5OC)c5ccccc45)cc3)ccnc2c1` [compound 80, 4-(5-fluoro-2-(methyloxy)phenyl)-N-(4-((7-(methyloxy)-1,5-naphthyridin-4-yl)oxy)phenyl)-1-phthalazinamine], the IC50 worked out at 0.414 µM on AuroraA-TPX2 and 0.041 µM at AuroraB.
The like results for `COc1cnc2c(Oc3ccc(Nc4nnc(-c5ccc(C)cc5)c5ccccc45)cc3)ccnc2c1` [compound 81, N-(4-((7-(methyloxy)-1,5-naphthyridin-4-yl)oxy)phenyl)-4-(4-methylphenyl)-1-phthalazinamine] were, in that order, 0.012 µM and 0.006 µM.
In the same order, the values of `COc1cnc2c(Oc3ccc(Nc4nnc(-c5nc(C)cs5)c5ccccc45)cc3)ccnc2c1` [compound 82, N-(4-((7-(methyloxy)-1,5-naphthyridin-4-yl)oxy)phenyl)-4-(4-methyl-1,3-thiazol-2-yl)-1-phthalazinamine] are 0.013 µM and 0.006 µM.
In the same order, the values of `CCc1cc(-c2ccccc2)nnc1Nc1ccc(Oc2ccnc3cc(OC)cnc23)nc1` [compound 83, 4-ethyl-N-(6-((7-(methyloxy)-1,5-naphthyridin-4-yl)oxy)-3-pyridinyl)-6-phenyl-3-pyridazinamine] are 0.08 µM and 0.01 µM.
With `COc1cnc2c(Oc3cnc(Nc4nnc(-c5ccccc5)c5ccccc45)nc3)ccnc2c1` [compound 84, N-(5-((7-(methyloxy)-1,5-naphthyridin-4-yl)oxy)-2-pyrimidinyl)-4-phenyl-1-phthalazinamine], the figures for the IC50 at AuroraA-TPX2 and at AuroraB were 0.16 µM and 0.002 µM, respectively.
In the same order, the values of `COc1cnc2c(Oc3ccc(Nc4nnc(N5CCN(C)CC5)c5ccccc45)cc3)ccnc2c1` [compound 85, N-(4-((7-(methyloxy)-1,5-naphthyridin-4-yl)oxy)phenyl)-4-(4-methyl-1-piperazinyl)-1-phthalazinamine] are 0.066 µM and 0.004 µM.
In the same order, the values of `Cc1csc(-c2nnc(Nc3ccc(Oc4ccnc5cc(C#N)ccc45)cc3)c3ccccc23)n1` [compound 86, 4-((4-((4-(4-methyl-1,3-thiazol-2-yl)-1-phthalazinyl)amino)phenyl)oxy)-7-quinolinecarbonitrile] are 0.031 µM and 0.014 µM.
In the same order, the values of `COc1ccc(F)cc1-c1nnc(Nc2ccc(Oc3ccnc4cc(C#N)ccc34)cc2)c2ccccc12` [compound 87, 4-((4-((4-(5-fluoro-2-(methyloxy)phenyl)-1-phthalazinyl)amino)phenyl)oxy)-7-quinolinecarbonitrile] are 0.142 µM and 0.013 µM.
Consider `Cc1ccc(-c2nnc(Nc3ccc(Oc4ccnc5cc(C#N)ccc45)cc3)c3ccccc23)cc1` [compound 88, 4-((4-((4-(4-methylphenyl)-1-phthalazinyl)amino)phenyl)oxy)-7-quinolinecarbonitrile], for which the IC50 on AuroraA-TPX2 came out at 0.006 µM; on AuroraB it was 0.003 µM.
